Consider 24 compounds from patent publication US20230399312A1, “SUBSTITUTED PYRIMIDINES AND METHODS OF USE” (THERAVANCE BIOPHARMA R&D IP, LLC, priority 2020, published 2023).

The test system of assay [1] is TGF-β-stimulated SMAD3 phosphorylation in BEAS-2B cells. Briefly: Cellular ALK5 potency assay, inhibition of TGF-β stimulated pSMAD3 formation in BEAS-2B cells. Type of assay: cell-based. Particulars: Homo sapiens, pSMAD3, TGF-β 10 ng/mL, read-out: BEAS2B pIC50 (converted). The essentials: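 BEAS-2B cells, HBSS/25 mM HEPES/1% BSA buffer; cpd 1 h, 37 °C; TGF-β 10 ng/mL final, 30 min; lysis, AlphaLISA pSMAD3 read next day. pIC50 vs stimulated no-compound baseline.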

For assay [2], the target named is T1, recombinant human ALK5 (TGF-βR1) protein (Homo sapiens, UniProt P36897).
T1 construct: purchased Life Technologies PR9075A
T1 sequence (P36897 34-503): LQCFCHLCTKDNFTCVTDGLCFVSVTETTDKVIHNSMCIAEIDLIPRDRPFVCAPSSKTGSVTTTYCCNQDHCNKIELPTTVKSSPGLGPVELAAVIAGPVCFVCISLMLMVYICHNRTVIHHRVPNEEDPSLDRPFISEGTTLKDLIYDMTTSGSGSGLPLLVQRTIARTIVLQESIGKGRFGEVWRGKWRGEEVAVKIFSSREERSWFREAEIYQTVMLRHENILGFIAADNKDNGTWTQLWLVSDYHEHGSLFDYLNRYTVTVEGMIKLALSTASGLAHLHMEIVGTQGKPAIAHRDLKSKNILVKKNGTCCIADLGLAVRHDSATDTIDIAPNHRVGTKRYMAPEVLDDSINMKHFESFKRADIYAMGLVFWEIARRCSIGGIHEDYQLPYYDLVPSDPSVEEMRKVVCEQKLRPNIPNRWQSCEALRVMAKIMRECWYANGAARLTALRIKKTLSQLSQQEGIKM
Put plainly: Biochemical ALK5 (TGF-βR1) assay to measure pKi (LANCE Ultra ULight kinase assay). Particulars: apparent pKi, converted from pIC50 by Cheng-Prusoff. In short, it runs like this: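 Europium TR-FRET kinase assay: the enzyme is exposed to compound for 60 min at room temperature, and reaction with ATP runs 60 min at 37 °C. Percent inhibition relative to DMSO and SD-208 controls gives pIC50, which is converted to pKi.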
A general note: In TR-FRET formats the signal depends on donor and acceptor labels being close together.

For `Cc1cccc(-c2nccc(Nc3ccnc(Nc4ccc(F)c(CN5CCN(C)CC5)c4)n3)n2)n1` [Compound 244, N2-[4-fluoro-3-[(4-methylpiperazin-1-yl)methyl]phenyl]-N4-[2-(6-methyl-2-pyridyl)pyrimidin-4-yl]pyrimidine-2,4-diamine], the IC50 in assay [1] is 25.1 to 158 nM. Besides, the Ki in assay [2] is 0.0398 to 0.316 nM.

In the case of `Cc1cccc(-c2nccc(Nc3ccnc(Nc4cnn(C5CCNC5)c4)n3)n2)n1` (stereo not drawn) [Compound 245, N4-[2-(6-methyl-2-pyridyl)pyrimidin-4-yl]-N2-(1-pyrrolidin-3-ylpyrazol-4-yl)pyrimidine-2,4-diamine], in assay [1], the IC50 was 200 to 1260 nM. For the same compound, the Ki in assay [2] is 0.0398 to 0.316 nM.

As to `CN(C)C1CCN(c2ccc(Nc3nccc(Nc4ccnc(-c5cc(Cl)c(F)cc5F)n4)n3)cc2)CC1` [Compound 246, N4-[2-(5-chloro-2,4-difluoro-phenyl)pyrimidin-4-yl]-N2-[4-[4-(dimethylamino)-1-piperidyl]phenyl]pyrimidine-2,4-diamine], the IC50 in assay [1] is 25.1 to 158 nM. The Ki in assay [2] was 0.0398 to 0.316 nM.

In the case of `Cc1cccc(-c2nccc(Nc3ccnc(Nc4ccc(C)c(CN5CCNCC5)c4)n3)n2)n1` [Compound 247, N2-[4-methyl-3-(piperazin-1-ylmethyl)phenyl]-N4-[2-(6-methyl-2-pyridyl)pyrimidin-4-yl]pyrimidine-2,4-diamine], in assay [1], the IC50 is 25.1 to 158 nM. Also, the Ki in assay [2] is 0.0398 to 0.316 nM.

As for `Cc1cccc(-c2nccc(Nc3ccnc(Nc4ccc(CN5CCC(C(=O)OC6CCN(C)C6)CC5)cc4)n3)n2)n1` (stereo not drawn) [Compound 248, (1-methylpyrrolidin-3-yl) 1-[[4-[[4-[[2-(6-methyl-2-pyridyl)pyrimidin-4-yl]amino]pyrimidin-2-yl]amino]phenyl]methyl] piperidine-4-carboxylate], the IC50 in assay [1] was 25.1 to 158 nM. Besides, the Ki in assay [2] is 0.0398 to 0.316 nM.

With `Cc1cccc(-c2nccc(Nc3ccnc(Nc4ccc(CN5CCNC(C)(C)C5)cc4)n3)n2)n1` [Compound 249, N2-[4-[(3,3-dimethylpiperazin-1-yl)methyl]phenyl]-N4-[2-(6-methyl-2-pyridyl)pyrimidin-4-yl]pyrimidine-2,4-diamine], in assay [1], the IC50 is 25.1 to 158 nM. The Ki in assay [2] is 0.0398 to 0.316 nM.

Consider `COCCOc1ccc(Nc2nccc(Nc3ccnc(-c4cccc(C)n4)n3)n2)cc1` [Compound 250, N2-[4-(2-methoxyethoxy)phenyl]-N4-[2-(6-methyl-2-pyridyl)pyrimidin-4-yl]pyrimidine-2,4-diamine], for which the IC50 in assay [1] is 25.1 to 158 nM. The Ki in assay [2] was 0.398 to 3.16 nM.

Consider `CNC1CCN(c2ccc(Nc3nccc(Nc4ccnc(-c5cccc(C)n5)n4)n3)cc2)CC1` [Compound 251, N2-[4-[4-(methylamino)-1-piperidyl]phenyl]-N4-[2-(6-methyl-2-pyridyl)pyrimidin-4-yl]pyrimidine-2,4-diamine], for which, in assay [1], the IC50 was 200 to 1260 nM. For the same compound, the Ki in assay [2] was 0.0398 to 0.316 nM.

As for `COC(=O)Cc1cc(Nc2nccc(Nc3ccnc(-c4cccc(C)n4)n3)n2)ccc1N1CCNCC1` [Compound 252, methyl 2-[5-[[4-[[2-(6-methyl-2-pyridyl)pyrimidin-4-yl]amino]pyrimidin-2-yl]amino]-2-piperazin-1-yl-phenyl]acetate], the IC50 in assay [1] is 25.1 to 158 nM. Besides, in assay [2], the Ki was not above 0.0316 nM.

In the case of `Cc1cccc(-c2nccc(Nc3ccnc(Nc4ccc(CCN(C)C)cc4)n3)n2)n1` [Compound 253, N2-[4-[2-(dimethylamino)ethyl]phenyl]-N4-[2-(6-methyl-2-pyridyl)pyrimidin-4-yl]pyrimidine-2,4-diamine], the IC50 in assay [1] is 25.1 to 158 nM. The Ki in assay [2] is 0.0398 to 0.316 nM.

As for `COC(=O)[C@@H]1CN(Cc2ccc(Nc3nccc(Nc4ccnc(-c5cccc(C)n5)n4)n3)cc2)CCN1` [Compound 254, methyl (2S)-4-[[4-[[4-[[2-(6-methyl-2-pyridyl)pyrimidin-4-yl]amino]pyrimidin-2-yl]amino]phenyl]methyl] piperazine-2-carboxylate], in assay [1], the IC50 was not above 20 nM. The Ki in assay [2] is 0.0398 to 0.316 nM.

As for `Cc1ccc(O)cc1-c1nccc(Nc2ccnc(Nc3ccc(N4CCC(N5CCN(C)CC5)CC4)cc3)n2)n1` [Compound 255, 4-methyl-3-(4-((2-((4-(4-(4-methylpiperazin-1-yl)piperidin-1-yl)phenyl)amino)pyrimidin-4-yl)amino)pyrimidin-2-yl)phenol], the IC50 in assay [1] is 25.1 to 158 nM. Moreover, the Ki in assay [2] is 0.398 to 3.16 nM.

Take `Cc1cccc(-c2nccc(Nc3ccnc(Nc4nc(C(=O)OCC5CNC5)cs4)n3)n2)n1` [Compound 256, azetidin-3-ylmethyl 2-[[4-[[2-(6-methyl-2-pyridyl)pyrimidin-4-yl]amino]pyrimidin-2-yl]amino]thiazole-4-carboxylate]: the IC50 in assay [1] is 200 to 1260 nM. Also, in assay [2], the Ki is 0.398 to 3.16 nM.

Turning to `Cc1cccc(-c2nccc(Nc3ccnc(Nc4cccc(C(=O)O[C@H]5CCNC5)c4)n3)n2)n1` [Compound 257, [(3S)-pyrrolidin-3-yl] 3-[[4-[[2-(6-methyl-2-pyridyl)pyrimidin-4-yl]amino]pyrimidin-2-yl]amino]benzoate], in assay [1], the IC50 is 25.1 to 158 nM. Besides, in assay [2], the Ki is 0.398 to 3.16 nM.

As for `Cc1cccc(-c2nccc(Nc3ccnc(Nc4ccc(C(=O)OC5CNC5)s4)n3)n2)n1` [Compound 258, azetidin-3-yl 5-[[4-[[2-(6-methyl-2-pyridyl)pyrimidin-4-yl]amino]pyrimidin-2-yl]amino]thiophene-2-carboxylate], in assay [1], the IC50 is 25.1 to 158 nM. Besides, the Ki in assay [2] is 0.0398 to 0.316 nM.

Regarding `Cc1cccc(-c2nccc(Nc3ccnc(Nc4ccc(NCCN)cc4)n3)n2)n1` [Compound 259, N2-[4-(2-aminoethylamino)phenyl]-N4-[2-(6-methyl-2-pyridyl)pyrimidin-4-yl]pyrimidine-2,4-diamine], the IC50 in assay [1] is 25.1 to 158 nM. Further, the Ki in assay [2] was 0.0398 to 0.316 nM.

As for `Cc1cccc(-c2nccc(Nc3ccnc(Nc4cccc(C(=O)OC5CNC5)c4)n3)n2)n1` [Compound 260, azetidin-3-yl 3-[[4-[[2-(6-methyl-2-pyridyl)pyrimidin-4-yl]amino]pyrimidin-2-yl]amino]benzoate], the IC50 in assay [1] was 25.1 to 158 nM. For the same compound, in assay [2], the Ki is 0.0398 to 0.316 nM.

Turning to `CC(=O)N1CCN(c2ccc(Nc3nccc(Nc4ccnc(-c5cccc(C)n5)n4)n3)cc2)CC1` [Compound 261, 1-[4-[4-[[4-[[2-(6-methyl-2-pyridyl)pyrimidin-4-yl]amino]pyrimidin-2-yl]amino]phenyl]piperazin-1-yl]ethanone], the IC50 in assay [1] is not above 20 nM. For the same compound, the Ki in assay [2] is not above 0.0316 nM.

Turning to `Cc1cccc(-c2nccc(Nc3ccnc(Nc4ccc(CN5CC(C)(N(C)C)C5)cc4)n3)n2)n1` [Compound 262, N2-[4-[[3-(dimethylamino)-3-methyl-azetidin-1-yl]methyl]phenyl]-N4-[2-(6-methyl-2-pyridyl)pyrimidin-4-yl]pyrimidine-2,4-diamine], the IC50 in assay [1] is 25.1 to 158 nM. The Ki in assay [2] is 0.0398 to 0.316 nM.

Take `Cc1cccc(-c2nccc(Nc3ccnc(Nc4ccc(NCCN5C[C@@H](C)N[C@@H](C)C5)cc4)n3)n2)n1` [Compound 263, N4-[2-(6-methyl-2-pyridyl)pyrimidin-4-yl]-N2-[4-[2-[rac-(3S,5R)-3,5-dimethylpiperazin-1-yl]ethylamino]phenyl] pyrimidine-2,4-diamine]: the IC50 in assay [1] was 25.1 to 158 nM. The Ki in assay [2] is 0.0398 to 0.316 nM.

For `Cc1cccc(-c2nccc(Nc3ccnc(Nc4ccc(S(=O)(=O)N5CCN(C(C)(C)C)CC5)cc4)n3)n2)n1` [Compound 264, N2-[4-(4-tert-butylpiperazin-1-yl)sulfonylphenyl]-N4-[2-(6-methyl-2-pyridyl)pyrimidin-4-yl]pyrimidine-2,4-diamine], the IC50 in assay [1] was 25.1 to 158 nM. The Ki in assay [2] is 0.0398 to 0.316 nM.

Turning to `Cc1cccc(-c2nccc(Nc3ccnc(Nc4ccc(NC(=O)C5CCNCC5)c(C)c4)n3)n2)n1` [Compound 265, N-[2-methyl-4-[[4-[[2-(6-methyl-2-pyridyl)pyrimidin-4-yl]amino]pyrimidin-2-yl]amino]phenyl]piperidine-4-carboxamide], the IC50 in assay [1] was not above 20 nM. The Ki in assay [2] is 0.0398 to 0.316 nM.

As for `Cc1cccc(-c2nccc(Nc3ccnc(Nc4ccc(N5CCN(C)CC5)cn4)n3)n2)n1` [Compound 267, N2-[5-(4-methylpiperazin-1-yl)-2-pyridyl]-N4-[2-(6-methyl-2-pyridyl)pyrimidin-4-yl]pyrimidine-2,4-diamine], the IC50 in assay [1] was 25.1 to 158 nM. The Ki in assay [2] is 0.398 to 3.16 nM.

As for `COC(=O)[C@H]1CN(Cc2ccc(Nc3nccc(Nc4ccnc(-c5cccc(C)n5)n4)n3)cc2)CCN1` [Compound 268, methyl (2R)-4-[[4-[[4-[[2-(6-methyl-2-pyridyl)pyrimidin-4-yl]amino]pyrimidin-2-yl]amino]phenyl]methyl] piperazine-2-carboxylate], in assay [1], the IC50 is not above 20 nM. Besides, the Ki in assay [2] is 0.0398 to 0.316 nM.
